Earlier results as cited in patent US20180228837A1, “STABLE IODINE SOLUTIONS WITH MEDICAL APPLICATIONS” (priority 2017, published 2018).
Like-named read-outs stand apart in the source and are kept apart here.

How the values were obtained:
[1] = system: ischemic open wounds; settings: ischemic open wounds in rats; compared with vehicle alone or untreated wounds
[2] = system: wound chambers and full thickness wounds; settings: pigs; injected in one area of the body, healing at distant areas
[3] = system: wound chambers and full thickness wounds; settings: mice; injected in one area of the body, healing at distant areas
[4] = system: dermal wounds; settings: dermal wounds of rabbits
[5] = system: wound chambers and full thickness wounds; settings: rats; injected in one area of the body, healing at distant areas
[6] = system: wounds; settings: diabetic rats; collagen membrane material

copper complex of a glycyl-L-histidyl-L-lysine peptide [GHK-Cu]
concentration of metalloproteinases 2 and 9 and of TNF-beta [1]: decreased
wound healing [1]: healed faster
systemic enhancement of healing [2]: induce a systemic enhancement of healing
systemic enhancement of healing [3]: induce a systemic enhancement of healing
wound healing [4]: facilitated wound healing
systemic enhancement of healing [5]: induce a systemic enhancement of healing
wound contraction and epithelization [6]: faster wound contraction and epithelization
